Results: ChEMBL document CHEMBL1201862, “PubChem BioAssay data set” (2004)
The source made the active and inactive calls.

Columns and labels:
[1] = Luminescence Cell-Based Dose Retest to Confirm Inhibitors of Cancer Stem Cells. [Related pubchem assays (depositor defined):AID2717, AID2721]; assay type: functional; conditions: Homo sapiens
[2] = test system: Streptococcus sp. 'group A'; experiment: Streptococcus pyogenes SK(-)GAS viability under kanamycin – luminescence, BacTiterGlo, confirmation, counter-screen for streptokinase expression inhibitor project, dose response (AID 1900); assay type: functional, organism-based
[3] = Counterscreen for AddAB inhibitors: absorbance-based bacterial cell-based high throughput dose response assay for inhibitors of bacterial viability. [Related pubchem assays (depositor defined):AID435030, AID449728, AID449731, AID488942, AID488955, AID488956]; assay type: functional
[4] = NIH3T3 cell viability loss – ATP luminescence, mouse fibroblasts, counter-screen, dose response (AID 2010); assay type: functional, cell-based;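 also: cells exposed to compound for about 90 hours before reading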
INS1 = experiment: INS-1E survival protection against cytokine death – cell-based, luminescence, retest, dose response (AID 449756); assay type: functional; conditions: Rattus norvegicus;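 also: cell death triggered by IL-1 beta plus TNF-alpha plus IFN-gamma mixture; protective hits raise ATP signal compared with cytokine alone wells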
[5] = Trypanosoma cruzi growth suppression in host cells – NIH3T3 host cells, beta-gal luminescence, confirmation (AID 2044); assay type: functional, cell-based;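 also: intracellular parasites grown in NIH/3T3 mouse fibroblasts as host cells; luminescent beta-galactosidase reporter signal from transgenic T. cruzi replicating inside host cells; inhibitors lower the luminescence signal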
Exodeoxyribonuclease V = target: T1, Exodeoxyribonuclease V (Escherichia coli (strain K12), UniProt P04993+P07648+P08394); experiment: RecBCD inhibition via phage-restricted bacterial growth – absorbance, V66 E. coli, mutant T4 phage, counter-screen for AddAB inhibitor project, dose response (AID 492957); assay type: functional, cell-based, Escherichia coli str. K-12 substr. MG1655
T1 sequence (P04993 whole entry): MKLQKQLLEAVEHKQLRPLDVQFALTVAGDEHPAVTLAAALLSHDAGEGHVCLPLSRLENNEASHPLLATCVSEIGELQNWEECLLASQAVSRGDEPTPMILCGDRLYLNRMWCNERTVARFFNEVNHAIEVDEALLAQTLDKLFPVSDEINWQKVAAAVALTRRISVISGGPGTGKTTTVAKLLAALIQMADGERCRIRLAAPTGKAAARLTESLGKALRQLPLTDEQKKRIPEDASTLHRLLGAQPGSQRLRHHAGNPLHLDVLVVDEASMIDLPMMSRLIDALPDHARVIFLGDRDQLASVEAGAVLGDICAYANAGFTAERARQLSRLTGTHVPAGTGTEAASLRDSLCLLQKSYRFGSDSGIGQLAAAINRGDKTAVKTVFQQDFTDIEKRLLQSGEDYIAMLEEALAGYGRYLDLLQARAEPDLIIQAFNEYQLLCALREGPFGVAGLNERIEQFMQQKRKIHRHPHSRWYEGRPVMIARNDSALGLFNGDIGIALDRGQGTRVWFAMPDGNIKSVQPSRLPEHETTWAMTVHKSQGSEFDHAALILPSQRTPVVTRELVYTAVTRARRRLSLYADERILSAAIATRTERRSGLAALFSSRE
T1 sequence (P07648 whole entry): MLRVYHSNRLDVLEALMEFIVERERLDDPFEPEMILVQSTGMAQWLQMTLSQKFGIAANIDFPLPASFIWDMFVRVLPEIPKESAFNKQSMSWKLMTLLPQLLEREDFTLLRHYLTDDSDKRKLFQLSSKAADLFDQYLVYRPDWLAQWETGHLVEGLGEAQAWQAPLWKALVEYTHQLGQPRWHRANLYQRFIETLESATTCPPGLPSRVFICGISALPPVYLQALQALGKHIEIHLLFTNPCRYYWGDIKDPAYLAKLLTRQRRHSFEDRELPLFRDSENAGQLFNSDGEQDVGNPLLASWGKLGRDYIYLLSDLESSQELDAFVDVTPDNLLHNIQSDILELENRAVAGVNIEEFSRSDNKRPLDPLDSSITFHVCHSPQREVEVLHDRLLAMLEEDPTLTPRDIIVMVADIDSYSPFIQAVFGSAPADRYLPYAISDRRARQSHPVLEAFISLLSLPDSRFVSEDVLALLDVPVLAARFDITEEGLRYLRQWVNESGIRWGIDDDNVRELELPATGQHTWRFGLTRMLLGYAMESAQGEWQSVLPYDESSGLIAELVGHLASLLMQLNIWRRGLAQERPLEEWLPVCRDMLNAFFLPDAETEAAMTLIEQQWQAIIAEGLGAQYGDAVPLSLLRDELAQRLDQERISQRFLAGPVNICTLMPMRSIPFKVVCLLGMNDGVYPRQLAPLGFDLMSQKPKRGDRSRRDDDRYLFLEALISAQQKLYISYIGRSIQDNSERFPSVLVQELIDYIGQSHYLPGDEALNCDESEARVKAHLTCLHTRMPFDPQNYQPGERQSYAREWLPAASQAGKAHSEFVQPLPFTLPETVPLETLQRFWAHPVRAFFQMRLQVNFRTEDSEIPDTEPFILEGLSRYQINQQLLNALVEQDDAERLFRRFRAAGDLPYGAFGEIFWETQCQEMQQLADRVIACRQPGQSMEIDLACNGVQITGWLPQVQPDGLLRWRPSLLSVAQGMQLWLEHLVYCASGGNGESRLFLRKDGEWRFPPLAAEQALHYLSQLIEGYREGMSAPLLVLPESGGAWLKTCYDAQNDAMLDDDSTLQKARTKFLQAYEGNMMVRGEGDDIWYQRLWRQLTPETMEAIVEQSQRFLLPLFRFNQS
T1 sequence (P08394 whole entry): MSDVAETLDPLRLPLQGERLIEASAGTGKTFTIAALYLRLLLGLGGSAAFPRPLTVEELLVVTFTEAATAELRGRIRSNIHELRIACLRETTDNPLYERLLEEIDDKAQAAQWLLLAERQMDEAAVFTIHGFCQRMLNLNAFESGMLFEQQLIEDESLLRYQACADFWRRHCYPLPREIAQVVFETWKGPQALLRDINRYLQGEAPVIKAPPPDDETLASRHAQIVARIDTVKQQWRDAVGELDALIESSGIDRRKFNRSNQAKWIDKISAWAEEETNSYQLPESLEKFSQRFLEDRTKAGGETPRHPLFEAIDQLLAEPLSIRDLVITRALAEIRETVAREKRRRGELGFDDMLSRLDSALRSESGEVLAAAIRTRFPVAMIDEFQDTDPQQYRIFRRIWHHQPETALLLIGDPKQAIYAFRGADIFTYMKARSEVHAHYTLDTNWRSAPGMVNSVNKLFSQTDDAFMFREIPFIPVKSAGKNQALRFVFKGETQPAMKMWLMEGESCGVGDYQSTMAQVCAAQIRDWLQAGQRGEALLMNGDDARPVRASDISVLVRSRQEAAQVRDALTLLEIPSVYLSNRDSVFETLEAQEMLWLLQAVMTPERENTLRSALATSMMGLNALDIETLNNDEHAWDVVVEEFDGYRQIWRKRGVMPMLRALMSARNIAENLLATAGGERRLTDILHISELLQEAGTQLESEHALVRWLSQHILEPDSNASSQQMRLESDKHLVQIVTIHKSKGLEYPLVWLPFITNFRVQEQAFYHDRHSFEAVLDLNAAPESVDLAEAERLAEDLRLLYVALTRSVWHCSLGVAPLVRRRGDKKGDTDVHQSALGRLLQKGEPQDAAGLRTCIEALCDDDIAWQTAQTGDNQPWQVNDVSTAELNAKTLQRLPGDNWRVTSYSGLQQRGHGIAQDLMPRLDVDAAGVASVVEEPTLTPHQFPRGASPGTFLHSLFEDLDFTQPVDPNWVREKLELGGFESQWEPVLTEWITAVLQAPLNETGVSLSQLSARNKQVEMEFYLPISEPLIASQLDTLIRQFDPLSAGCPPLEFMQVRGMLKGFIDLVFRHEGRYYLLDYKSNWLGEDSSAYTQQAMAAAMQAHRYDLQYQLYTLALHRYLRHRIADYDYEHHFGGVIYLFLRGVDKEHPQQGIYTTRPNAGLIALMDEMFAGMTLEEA

cells [6] = assay type: functional, cell-based
cells [7] = assay type: functional, cell-based; remark: listed apart in the source
[8] = target: Heat shock protein HSP 90-alpha (Homo sapiens, UniProt P07900); assay type: functional, organism-based
Streptococcus = experiment: GAS UMAA2166 growth inhibition – luminescence, BacTiterGlo, counter-screen for streptokinase expression inhibitor project, dose response (AID 1915); assay type: functional, organism-based;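 also: potency for reduction of bacterial viability or growth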
HEK293 [9] = experiment: cells; assay type: functional, cell-based; conditions: Homo sapiens
HEK293 [10] = experiment: cells; assay type: functional, cell-based; conditions: Homo sapiens; remark: listed apart in the source
HEK293 [11] = experiment: cells; assay type: functional, cell-based; conditions: Homo sapiens; remark: listed apart in the source
[12] = target: T2, Short transient receptor potential channel 4 (Mus musculus, UniProt Q9QUQ5); experiment: block of DAMGO-driven TRPC4 calcium entry – cell-based, HEK293 TRPC4/mu-opioid, Fluo-4 calcium, dose response (AID 434942); assay type: functional;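 also: potency of inhibitors blocking the TRPC4 calcium response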
T2 sequence (Q9QUQ5 whole entry): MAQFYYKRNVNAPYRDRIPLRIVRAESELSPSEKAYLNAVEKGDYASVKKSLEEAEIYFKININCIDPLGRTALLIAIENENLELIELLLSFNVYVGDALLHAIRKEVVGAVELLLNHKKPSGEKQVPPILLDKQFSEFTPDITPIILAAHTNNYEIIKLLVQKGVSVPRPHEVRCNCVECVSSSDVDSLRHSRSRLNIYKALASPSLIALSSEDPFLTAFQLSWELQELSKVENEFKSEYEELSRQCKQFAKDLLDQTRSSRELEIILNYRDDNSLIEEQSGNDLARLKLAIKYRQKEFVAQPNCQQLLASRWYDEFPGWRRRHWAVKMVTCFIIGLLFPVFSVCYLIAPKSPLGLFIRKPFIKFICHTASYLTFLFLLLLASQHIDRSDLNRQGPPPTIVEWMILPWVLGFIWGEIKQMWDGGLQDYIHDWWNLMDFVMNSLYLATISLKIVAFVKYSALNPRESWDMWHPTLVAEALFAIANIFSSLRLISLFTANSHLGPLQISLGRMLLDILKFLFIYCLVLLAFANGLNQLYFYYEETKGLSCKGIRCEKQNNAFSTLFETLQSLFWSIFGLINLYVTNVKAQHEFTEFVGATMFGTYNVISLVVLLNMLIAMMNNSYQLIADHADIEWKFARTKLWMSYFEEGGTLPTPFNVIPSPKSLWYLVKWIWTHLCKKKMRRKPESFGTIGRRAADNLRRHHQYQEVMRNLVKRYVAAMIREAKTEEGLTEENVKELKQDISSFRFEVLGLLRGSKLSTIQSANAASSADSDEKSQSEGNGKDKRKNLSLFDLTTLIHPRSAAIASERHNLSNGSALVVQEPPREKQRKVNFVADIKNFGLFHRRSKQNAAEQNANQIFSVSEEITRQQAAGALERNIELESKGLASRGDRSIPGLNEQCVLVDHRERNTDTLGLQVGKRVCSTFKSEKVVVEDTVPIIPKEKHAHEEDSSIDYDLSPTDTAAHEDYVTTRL

[13] = target: Nucleotide-binding oligomerization domain-containing protein 2 (Homo sapiens, UniProt Q9HC29); experiment: inhibition of NOD2-driven NF-kB reporter – cell-based, luminescence, uHTS, HEK293 (AID 1566); assay type: functional
HEK293 [14] = experiment: inhibition of NOD1-driven NF-kB reporter – cell-based, luminescence, uHTS, primary screen (AID 1578); assay type: functional; conditions: Homo sapiens
HEK293 [15] = experiment: NOD2 signaling inhibitors in MDP-stimulated cells, cell-based, uHTS, luminescence (AID 2001); assay type: functional; conditions: Homo sapiens
[16] = target: T3, Carboxy-terminal domain RNA polymerase II polypeptide A small phosphatase 1 (Homo sapiens, UniProt Q9GZU7); experiment: CTDSP1 inhibitors, concentration-response, biochemical, absorbance readout, ultra-high-throughput screen actives (AID 540297); assay type: functional
T3 sequence (Q9GZU7 whole entry): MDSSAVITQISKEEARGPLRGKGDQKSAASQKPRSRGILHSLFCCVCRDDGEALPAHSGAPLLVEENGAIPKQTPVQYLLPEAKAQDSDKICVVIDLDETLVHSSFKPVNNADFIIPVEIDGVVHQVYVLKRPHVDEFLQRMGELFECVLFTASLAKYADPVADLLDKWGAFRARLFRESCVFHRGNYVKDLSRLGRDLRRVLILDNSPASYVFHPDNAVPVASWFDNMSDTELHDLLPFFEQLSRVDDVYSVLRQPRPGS

Chain of Nucleotide-binding oligomerization domain-containing protein 2 (Q9HC29 whole entry, the tested form may be a part): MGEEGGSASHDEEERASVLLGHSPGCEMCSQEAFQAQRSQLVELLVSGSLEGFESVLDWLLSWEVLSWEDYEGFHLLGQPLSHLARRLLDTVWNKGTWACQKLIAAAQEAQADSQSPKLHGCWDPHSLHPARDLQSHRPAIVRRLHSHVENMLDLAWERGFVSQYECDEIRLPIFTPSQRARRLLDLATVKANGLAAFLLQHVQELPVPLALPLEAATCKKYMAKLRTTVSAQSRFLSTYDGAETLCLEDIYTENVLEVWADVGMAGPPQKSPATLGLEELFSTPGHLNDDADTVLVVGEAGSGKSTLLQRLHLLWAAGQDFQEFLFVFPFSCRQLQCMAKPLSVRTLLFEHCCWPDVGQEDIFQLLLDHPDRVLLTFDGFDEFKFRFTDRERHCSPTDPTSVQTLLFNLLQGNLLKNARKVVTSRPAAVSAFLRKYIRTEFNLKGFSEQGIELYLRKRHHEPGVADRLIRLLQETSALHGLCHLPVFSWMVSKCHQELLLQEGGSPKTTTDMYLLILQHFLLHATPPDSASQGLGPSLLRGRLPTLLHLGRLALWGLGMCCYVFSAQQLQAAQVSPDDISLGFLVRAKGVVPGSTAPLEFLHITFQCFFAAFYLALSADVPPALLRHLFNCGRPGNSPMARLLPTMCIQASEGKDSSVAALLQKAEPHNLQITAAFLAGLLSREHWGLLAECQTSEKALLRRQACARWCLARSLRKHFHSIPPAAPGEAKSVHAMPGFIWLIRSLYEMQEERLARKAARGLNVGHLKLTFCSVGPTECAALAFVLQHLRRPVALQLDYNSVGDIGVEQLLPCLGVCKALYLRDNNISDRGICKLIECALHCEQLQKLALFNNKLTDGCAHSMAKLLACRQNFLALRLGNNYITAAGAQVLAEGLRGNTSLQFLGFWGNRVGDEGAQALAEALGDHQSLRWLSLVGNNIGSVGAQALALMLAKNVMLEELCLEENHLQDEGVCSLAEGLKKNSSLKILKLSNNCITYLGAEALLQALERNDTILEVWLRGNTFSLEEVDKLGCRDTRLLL

Row | SMILES | IC50 [3] | IC50 (Exodeoxyribonuclease V) | IC50 (HEK293 [9]) | IC50 (HEK293 [10]) | IC50 (HEK293 [11]) | EC50 [13] | EC50 (HEK293 [14]) | IC50 (HEK293 [15]) | further results
1 | CCCC(=O)NC(c1ccc2c(c1)OCO2)c1cc(Cl)c2cccnc2c1O (centres undefined) | > 119 µM (inactive) | > 119 µM (inactive) |  |  |  |  |  |  | AC50 [1]: 3.06 µM (active); EC50 [2]: 4.09 µM (active); EC50 [4]: 2.21 µM (active); AC50 (INS1): 1.03 µM (active); EC50 [5]: 0.912 µM (active); EC50 (cells [6]): 47.7 µM (active); EC50 (cells [7]): > 350 µM (not active); AC50 [8]: 3.41 µM (active); EC50 (Streptococcus): 7.69 µM (active)
2 | Cc1nc(N2CCN(c3ccccn3)CC2)c2c(C)c(C(=O)N3CCN(c4ccccc4F)CC3)sc2n1 |  |  | > 20 µM (inactive) | 11 µM (active) | 6.62 µM (active) | 5.07 µM (active) | 6.4 µM (active) | 7.16 µM (inactive) | EC50 [12]: 1.68 µM (active)
3 | CCS(=O)(=O)C1=NN2C(=N)/C(=C\c3ccc(OCCOc4cccc(OC)c4)c(OC)c3)C(=O)N=C2S1 |  |  | > 20 µM (inactive) | > 20 µM (inactive) | > 20 µM (inactive) | 3.32 µM (active) | > 20 µM (inactive) | > 20 µM (inactive) | IC50 [16]: 4.26 µM (active)
4 | Cc1c(Cl)cccc1N=C(S)NCc1ccccc1Cl | > 119 µM (inactive) | > 119 µM (inactive) |  |  |  |  |  |  | 
5 | CSc1nc(N)nc2c1ncn2CC(=O)Nc1ccc(C)c(C)c1 | > 118 µM (inactive) | > 118 µM (inactive) |  |  |  |  |  |  | 
